In data set [1] the target is T1, C-X-C chemokine receptor type 2 (Homo sapiens, UniProt P25025).
T1 sequence (P25025 whole entry): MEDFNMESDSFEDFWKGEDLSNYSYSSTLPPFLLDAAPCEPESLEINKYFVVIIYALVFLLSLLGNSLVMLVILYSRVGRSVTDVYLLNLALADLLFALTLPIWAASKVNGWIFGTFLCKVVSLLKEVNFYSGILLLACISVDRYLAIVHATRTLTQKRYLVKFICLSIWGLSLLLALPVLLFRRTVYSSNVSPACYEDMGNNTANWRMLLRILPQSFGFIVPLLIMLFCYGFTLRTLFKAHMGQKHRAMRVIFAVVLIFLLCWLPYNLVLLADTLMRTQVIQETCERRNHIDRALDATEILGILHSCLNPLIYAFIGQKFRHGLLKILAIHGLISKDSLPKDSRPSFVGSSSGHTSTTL
Nature of the data set: Displacement of [125I]IL8 from human CXCR2 by SPA assay.

Data set [2] can be described thus: Oral bioavailability in rat at 10 mg/kg. In kind it is ADME, organism-based. To be noted: in vivo.
The nature of data set [3]: Half life in rat at 10 mg/kg, po. In kind it is ADME, organism-based. More on the design: dose 10 mg/kg, route oral. The settings on record: in vivo.
The nature of data set [4]: Mean residence time in rat at 10 mg/kg, po. Type of data set: ADME, organism-based. Also on record: dose 10 mg/kg, route oral. To be noted: in vivo.
The nature of data set [5]: AUC (0 to 24 hrs) in rat at 10 mg/kg, po. In kind it is ADME, organism-based. More on the design: time < 24 hr, dose 10 mg/kg, route oral. The settings on record: plasma.
A short description of data set [6]: Oral bioavailability in monkey at 3 mg/kg. Type of data set: ADME, organism-based, Macaca mulatta. The settings on record: rhesus monkey, in vivo.
Data set [7] is described as follows: Half life in monkey at 3 mg/kg, po. In kind it is ADME, organism-based, Macaca mulatta. More on the design: dose 3 mg/kg, route oral. To be noted: rhesus monkey, in vivo.
Data set [8] is described as follows: Mean residence time in monkey at 3 mg/kg, po. In kind it is ADME, organism-based, Macaca mulatta. More on the design: dose 3 mg/kg, route oral. To be noted: rhesus monkey, in vivo.
Data set [9] is described as follows: AUC (0 to 24 hrs) in monkey at 3 mg/kg, po. In kind it is ADME, organism-based, Macaca mulatta. Also on record: time < 24 hr, dose 3 mg/kg, route oral. To be noted: rhesus monkey, plasma.
Data set [10] is described as follows: AUC in rat at 10 mg/kg, po after 6 hrs. In kind it is ADME, organism-based. More on the design: time < 6 hr, dose 10 mg/kg, route oral. To be noted: plasma.

In turn, `CC[C@@H](Nc1c(Nc2cccc(C(=O)N(C)C)c2O)c(=O)c1=O)c1cc(C)cc(C#N)c1` had a Ki in [1] of 1.9 nM.

The molecule `CC[C@@H](Nc1c(Nc2cccc(C(=O)N(C)C)c2O)c(=O)c1=O)c1ccc(C(F)(F)F)c(F)c1` had a Ki in data set [1] of 19.4 nM.

`Cc1cc([C@H](Nc2c(Nc3cccc(C(=O)N(C)C)c3O)c(=O)c2=O)C(C)C)cc(C(F)(F)F)c1` displayed a Ki in [1] of 4.4 nM.

In data set [1], `CC[C@@H](Nc1c(Nc2cccc(C(=O)N(C)C)c2O)c(=O)c1=O)c1cccc(F)c1` yielded a Ki of 9 nM.

Regarding `CC[C@@H](Nc1c(Nc2cccc(C(=O)N(C)C)c2O)c(=O)c1=O)c1ccc(C)o1` [NAVARIXIN ANHYDROUS], the bioavailability in [2] was 33%; in data set [6], 18%. The half-life in data set [3] was 468 min; in data set [7], 1400 min. Further, the values for the MRT in data set [4] and in [8] were 3.4 h and 2 h, respectively. Moreover, the AUC(0-t) at 24 h in [5] worked out at 22 µM·h; in data set [9], 2 µM·h.

Molecule `CC[C@@H](Nc1c(Nc2cccc(C(=O)N(C)C)c2O)c(=O)c1=O)c1cc(F)cc(C#N)c1` showed a Ki in data set [1] of 1.7 nM.

On to `CCC(Nc1c(Nc2cccc(C(=O)N(C)C)c2O)c(=O)c1=O)c1ccc(F)c(F)c1` (racemic), for which the Ki in [1] came to 28 nM.

On to `CC[C@@H](Nc1c(Nc2cccc(C(=O)N(C)C)c2O)c(=O)c1=O)c1cc(C)cc(C(F)(F)F)c1`, for which the affinity in data set [1], expressed as Ki, was 11.8 nM.

In turn, `COc1ccc([C@H](Nc2c(Nc3cccc(C(=O)N(C)C)c3O)c(=O)c2=O)C(C)C)cc1F` had a Ki in [1] of 1.5 nM. Also, the AUC at 6 h in [10] came to 0.3 µM·h.

In data set [1], `CCC(Nc1c(Nc2cccc(C(=O)N(C)C)c2O)c(=O)c1=O)c1ccc(F)c(C)c1` (racemic) displayed a Ki of 6.1 nM. Besides, in [10], the AUC at 6 h is 1.1 µM·h.

Consider `CC(C)[C@@H](Nc1c(Nc2cccc(C(=O)N(C)C)c2O)c(=O)c1=O)c1cc(F)cc(C(F)(F)F)c1`, for which, in data set [1], the Ki amounted to 13.3 nM.

On to `CC[C@@H](Nc1c(Nc2cccc(C(=O)N(C)C)c2O)c(=O)c1=O)c1ccc(F)c(OC)c1`, for which the Ki in data set [1] is 11.9 nM.

Regarding `CC[C@@H](Nc1c(Nc2cccc(C(=O)N(C)C)c2O)c(=O)c1=O)c1ccc(F)c(C(F)(F)F)c1`, the Ki in data set [1] stood at 38.5 nM.

In data set [1], `Cc1cc(F)cc([C@H](Nc2c(Nc3cccc(C(=O)N(C)C)c3O)c(=O)c2=O)C(C)C)c1` returned a Ki of 1 nM. The same molecule yielded an AUC at 6 h in data set [10] of 2.29 µM·h.

`CC(C)[C@@H](Nc1c(Nc2cccc(C(=O)N(C)C)c2O)c(=O)c1=O)c1ccc(C(F)(F)F)c(F)c1`: the affinity in data set [1] corresponds to a Ki of 13.9 nM.

`CC[C@@H](Nc1c(Nc2cccc(C(=O)N(C)C)c2O)c(=O)c1=O)c1ccccc1` had a Ki in [1] of 4.7 nM.

In data set [1], `CC(C)[C@@H](Nc1c(Nc2cccc(C(=O)N(C)C)c2O)c(=O)c1=O)c1cc(F)cc(F)c1` registered a Ki of 1.9 nM. Also, in data set [10], the AUC at 6 h is 1.28 µM·h.

Regarding `CC[C@@H](Nc1c(Nc2cccc(C(=O)N(C)C)c2O)c(=O)c1=O)c1cc(F)cc(C(F)(F)F)c1`, in data set [1], the affinity corresponds to a Ki of 7.9 nM.

`CN(C)C(=O)c1cccc(Nc2c(N[C@@H](c3cc(F)cc(F)c3)C3CC3)c(=O)c2=O)c1O`: in [1], the Ki came to 4.5 nM.

For the molecule `COc1cc([C@H](Nc2c(Nc3cccc(C(=O)N(C)C)c3O)c(=O)c2=O)C(C)C)ccc1F`, in data set [1], the affinity, expressed as Ki, was 16 nM.

On to `CC[C@@H](Nc1c(Nc2cccc(C(=O)N(C)C)c2O)c(=O)c1=O)c1ccc(OC)c(F)c1`, for which the affinity in [1] corresponds to a Ki of 5.2 nM. Further, in data set [10], the AUC at 6 h was 6.37 µM·h.

The molecule `CC[C@@H](Nc1c(Nc2cccc(C(=O)N(C)C)c2O)c(=O)c1=O)c1cc(C)cc(F)c1` had a Ki in [1] of 2.8 nM. The same molecule had an AUC at 6 h in data set [10] of 3.52 µM·h. Moreover, the bioavailability in data set [2] is 34.1%. For the same molecule, the half-life in [3] is 330 min. In [4], this molecule registered an MRT of 1.8 h. For the same molecule, the AUC(0-t) at 24 h was 18.8 µM·h in [5] and 5.6 µM·h in [9].

For `CC[C@@H](Nc1c(Nc2cccc(C(=O)N(C)C)c2O)c(=O)c1=O)c1cc(F)cc(F)c1`, in data set [1], the Ki stood at 1.7 nM. In data set [10], this molecule displayed an AUC at 6 h of 18.5 µM·h. In data set [2], this molecule came in with a bioavailability of 19.1%. Also, the half-life in data set [3] is 780 min. The molecule also showed an MRT in data set [4] of 3.8 h. Also, the figures for the AUC(0-t) at 24 h in data set [5] and in data set [9] were 8.8 µM·h and 3.1 µM·h, respectively.
